Key:
[1] = target: Aldo-keto reductase family 1 member B1 (Rattus norvegicus, UniProt P07943); assay type: tissue-based, Lens of camera-type eye;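 also: inhibition of aldose reductase enzyme activity, measured with DL-glyceraldehyde as the substrate; in other assays of this panel Not Active means under 50% inhibition at 10 µM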
[2] = DRUGMATRIX: Calcium Channel Type L, Dihydropyridine radioligand binding (ligand: [3H] Nitrendipine); assay type: cell membranes, Rattus norvegicus, Wistar, Cerebral cortex, Membrane; conditions: Not Active = under 50% inhibition at 10 µM
[3] = DRUGMATRIX: Serotonin (5-Hydroxytryptamine) 5-HT3 radioligand binding (ligand: [3H] GR-65630); assay type: cell membranes, Membrane; conditions: hek293; Not Active = under 50% inhibition at 10 µM
[4] = target: Substance-P receptor (Homo sapiens, UniProt P25103); assay type: cell membranes, CHO, Membrane; conditions: cho; also: in other assays of this panel Not Active means under 50% inhibition at 10 µM
[5] = target: Carbonic anhydrase 2 (Homo sapiens, UniProt P00918); assay: DRUGMATRIX: Carbonic Anhydrase II enzyme inhibition (substrate: 4-Nitrophenyl acetate (4-NPA)); assay type: tissue-based, Erythrocyte; conditions: erythrocyte; Not Active = under 50% inhibition at 10 µM
[6] = target: T1, C-X-C chemokine receptor type 1 (Homo sapiens, UniProt P25024); also: in other assays of this panel Not Active means under 50% inhibition at 10 µM
T1 sequence (P25024 whole entry): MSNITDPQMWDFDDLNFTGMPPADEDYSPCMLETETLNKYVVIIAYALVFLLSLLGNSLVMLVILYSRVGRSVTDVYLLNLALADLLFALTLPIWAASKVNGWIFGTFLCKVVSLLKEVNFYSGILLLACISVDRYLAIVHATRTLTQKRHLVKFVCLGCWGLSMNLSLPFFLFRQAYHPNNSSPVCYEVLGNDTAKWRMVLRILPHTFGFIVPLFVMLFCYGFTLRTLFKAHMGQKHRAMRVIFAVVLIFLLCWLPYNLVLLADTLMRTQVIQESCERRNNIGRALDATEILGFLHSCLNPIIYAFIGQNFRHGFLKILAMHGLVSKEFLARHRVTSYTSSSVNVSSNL

[7] = target: D(1A) dopamine receptor (Homo sapiens, UniProt P21728); assay: DRUGMATRIX: Dopamine D1 radioligand binding (ligand: [3H] SCH-23390); assay type: cell membranes, CHO, Membrane; conditions: cho; Not Active = under 50% inhibition at 10 µM
[8] = target: D(3) dopamine receptor (Homo sapiens, UniProt P35462); assay: DRUGMATRIX: Dopamine D3 radioligand binding (ligand: [3H] Spiperone); assay type: cell membranes, CHO, Membrane; conditions: cho
[9] = DRUGMATRIX: GABAA, Muscimol, Central radioligand binding (ligand: [3H] Muscimol); assay type: cell membranes, Rattus norvegicus, Wistar, Brain, Membrane; conditions: Not Active = under 50% inhibition at 10 µM
[10] = DRUGMATRIX: GABAA, Flunitrazepam, Central radioligand binding (ligand: [3H] Flunitrazepam); assay type: cell membranes, Rattus norvegicus, Wistar, Brain, Membrane; conditions: Not Active = under 50% inhibition at 10 µM
[11] = DRUGMATRIX: Glutamate, AMPA radioligand binding (ligand: [3H] AMPA); assay type: cell membranes, Rattus norvegicus, Wistar, Cerebral cortex, Membrane; conditions: Not Active = under 50% inhibition at 10 µM
[12] = DRUGMATRIX: Glutamate, Kainate radioligand binding (ligand: [3H] Kainic acid); assay type: cell membranes, Rattus norvegicus, Wistar, Brain, Membrane; conditions: Not Active = under 50% inhibition at 10 µM
[13] = target: Melanocortin receptor 3 (Homo sapiens, UniProt P41968); assay type: cell membranes, Membrane; conditions: hek293; also: in other assays of this panel Not Active means under 50% inhibition at 10 µM
[14] = target: Delta-type opioid receptor (Homo sapiens, UniProt P41143); assay type: cell membranes, HEK293, Membrane; conditions: hek293; also: in other assays of this panel Not Active means under 50% inhibition at 10 µM
[15] = DRUGMATRIX: Phorbol Ester radioligand binding (ligand: [3H] PDBu); assay type: cell membranes, Mus musculus, ICR, Brain, Membrane; conditions: Not Active = under 50% inhibition at 10 µM
[16] = target: T2, Progesterone receptor (Bos taurus, UniProt Q690N0); assay: DRUGMATRIX: Progesterone radioligand binding (ligand: [3H] R-5020); assay type: tissue-based, Uterus; conditions: Not Active = under 50% inhibition at 10 µM
T2 sequence (Q690N0 whole entry): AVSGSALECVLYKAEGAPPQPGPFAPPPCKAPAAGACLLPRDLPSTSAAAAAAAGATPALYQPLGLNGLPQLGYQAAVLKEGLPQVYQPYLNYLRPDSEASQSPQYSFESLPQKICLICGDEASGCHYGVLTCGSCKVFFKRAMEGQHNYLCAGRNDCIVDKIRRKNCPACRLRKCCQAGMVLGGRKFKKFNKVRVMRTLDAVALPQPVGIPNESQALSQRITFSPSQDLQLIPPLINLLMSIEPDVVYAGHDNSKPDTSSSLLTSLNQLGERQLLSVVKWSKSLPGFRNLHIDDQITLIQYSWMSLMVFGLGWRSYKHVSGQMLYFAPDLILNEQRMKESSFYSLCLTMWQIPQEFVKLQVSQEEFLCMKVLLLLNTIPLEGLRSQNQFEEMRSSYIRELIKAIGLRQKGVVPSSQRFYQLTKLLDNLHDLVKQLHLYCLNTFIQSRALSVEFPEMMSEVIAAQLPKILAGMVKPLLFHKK

[17] = target: T3, Interstitial collagenase (Homo sapiens, UniProt P03956); assay type: tissue-based, Rheumatoid synovial fibroblasts
T3 sequence (P03956 whole entry): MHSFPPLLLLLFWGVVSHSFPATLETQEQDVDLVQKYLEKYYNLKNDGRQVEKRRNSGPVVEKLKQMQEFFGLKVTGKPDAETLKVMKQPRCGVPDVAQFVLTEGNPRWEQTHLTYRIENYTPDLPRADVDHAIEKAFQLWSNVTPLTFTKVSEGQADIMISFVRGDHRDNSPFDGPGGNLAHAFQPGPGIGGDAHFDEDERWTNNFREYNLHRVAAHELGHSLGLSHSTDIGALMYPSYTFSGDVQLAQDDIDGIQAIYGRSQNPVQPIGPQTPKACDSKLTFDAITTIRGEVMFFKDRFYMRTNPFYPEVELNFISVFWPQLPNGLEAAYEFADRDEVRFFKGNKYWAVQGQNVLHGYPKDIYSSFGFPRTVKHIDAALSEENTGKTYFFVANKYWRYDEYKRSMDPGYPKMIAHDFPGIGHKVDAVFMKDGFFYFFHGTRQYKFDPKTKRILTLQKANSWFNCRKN

[18] = target: Mitogen-activated protein kinase 14 (Homo sapiens, UniProt Q16539); design: species or system Escherichia coli
[19] = target: Tyrosine-protein kinase Fyn (Homo sapiens, UniProt P06241); assay: biochemical; assay type: cell-based, Insect cells
[20] = target: T4, Adenosine receptor A3 (Homo sapiens, UniProt P0DMS8); assay type: cell membranes, CHO-K1, Membrane; conditions: cho-k1
T4 sequence (P0DMS8 whole entry): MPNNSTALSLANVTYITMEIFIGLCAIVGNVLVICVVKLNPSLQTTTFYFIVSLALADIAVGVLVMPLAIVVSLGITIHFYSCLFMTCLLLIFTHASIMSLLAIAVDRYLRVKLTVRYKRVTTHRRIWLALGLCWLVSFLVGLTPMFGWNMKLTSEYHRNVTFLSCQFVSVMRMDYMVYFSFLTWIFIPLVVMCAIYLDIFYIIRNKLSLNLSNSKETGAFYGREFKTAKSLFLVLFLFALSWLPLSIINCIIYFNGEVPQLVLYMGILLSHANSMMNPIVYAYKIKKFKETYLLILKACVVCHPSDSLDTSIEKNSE

Chain of Melanocortin receptor 3 (P41968 whole entry): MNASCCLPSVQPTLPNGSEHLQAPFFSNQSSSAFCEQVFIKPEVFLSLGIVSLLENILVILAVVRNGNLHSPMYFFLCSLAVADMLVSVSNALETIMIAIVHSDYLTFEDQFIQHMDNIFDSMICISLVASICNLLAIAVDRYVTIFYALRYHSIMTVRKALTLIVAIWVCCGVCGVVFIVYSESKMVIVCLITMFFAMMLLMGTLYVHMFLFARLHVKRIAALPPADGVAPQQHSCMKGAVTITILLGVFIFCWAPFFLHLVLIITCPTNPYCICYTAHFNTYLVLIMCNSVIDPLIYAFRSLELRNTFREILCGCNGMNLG
Chain of Tyrosine-protein kinase Fyn (P06241 whole entry): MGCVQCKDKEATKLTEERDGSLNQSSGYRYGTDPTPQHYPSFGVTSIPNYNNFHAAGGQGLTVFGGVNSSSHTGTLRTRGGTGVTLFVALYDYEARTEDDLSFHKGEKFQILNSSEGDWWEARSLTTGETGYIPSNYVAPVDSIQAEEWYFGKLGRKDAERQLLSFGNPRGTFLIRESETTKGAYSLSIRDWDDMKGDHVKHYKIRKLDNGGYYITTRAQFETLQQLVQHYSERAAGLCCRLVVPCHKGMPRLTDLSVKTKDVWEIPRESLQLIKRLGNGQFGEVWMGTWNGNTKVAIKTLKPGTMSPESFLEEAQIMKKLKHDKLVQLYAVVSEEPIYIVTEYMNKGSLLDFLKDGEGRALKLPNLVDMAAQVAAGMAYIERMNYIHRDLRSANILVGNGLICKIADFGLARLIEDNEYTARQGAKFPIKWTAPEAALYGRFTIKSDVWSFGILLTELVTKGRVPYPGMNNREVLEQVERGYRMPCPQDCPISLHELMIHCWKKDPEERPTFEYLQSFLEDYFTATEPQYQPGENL
Chain of Mitogen-activated protein kinase 14 (Q16539 whole entry): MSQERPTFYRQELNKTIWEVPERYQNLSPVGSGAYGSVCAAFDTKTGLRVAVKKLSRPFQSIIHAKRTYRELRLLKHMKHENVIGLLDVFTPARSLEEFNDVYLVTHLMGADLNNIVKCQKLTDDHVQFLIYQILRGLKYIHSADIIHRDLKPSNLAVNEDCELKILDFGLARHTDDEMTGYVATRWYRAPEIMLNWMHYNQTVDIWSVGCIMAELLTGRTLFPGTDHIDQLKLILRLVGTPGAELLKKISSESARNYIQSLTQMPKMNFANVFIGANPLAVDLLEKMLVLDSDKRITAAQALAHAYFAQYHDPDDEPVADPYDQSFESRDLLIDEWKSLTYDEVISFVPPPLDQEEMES
Chain of D(3) dopamine receptor (P35462 whole entry): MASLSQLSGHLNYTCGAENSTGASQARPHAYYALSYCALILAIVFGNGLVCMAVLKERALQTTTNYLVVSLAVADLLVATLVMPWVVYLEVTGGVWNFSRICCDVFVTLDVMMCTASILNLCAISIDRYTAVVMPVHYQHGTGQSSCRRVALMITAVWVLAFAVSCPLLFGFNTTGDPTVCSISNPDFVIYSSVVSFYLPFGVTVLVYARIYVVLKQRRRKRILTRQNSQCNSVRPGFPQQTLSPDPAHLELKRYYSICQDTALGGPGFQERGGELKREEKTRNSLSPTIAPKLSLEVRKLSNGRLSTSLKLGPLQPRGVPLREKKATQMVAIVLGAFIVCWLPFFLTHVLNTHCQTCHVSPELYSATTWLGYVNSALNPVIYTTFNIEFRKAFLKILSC
Chain of D(1A) dopamine receptor (P21728 whole entry): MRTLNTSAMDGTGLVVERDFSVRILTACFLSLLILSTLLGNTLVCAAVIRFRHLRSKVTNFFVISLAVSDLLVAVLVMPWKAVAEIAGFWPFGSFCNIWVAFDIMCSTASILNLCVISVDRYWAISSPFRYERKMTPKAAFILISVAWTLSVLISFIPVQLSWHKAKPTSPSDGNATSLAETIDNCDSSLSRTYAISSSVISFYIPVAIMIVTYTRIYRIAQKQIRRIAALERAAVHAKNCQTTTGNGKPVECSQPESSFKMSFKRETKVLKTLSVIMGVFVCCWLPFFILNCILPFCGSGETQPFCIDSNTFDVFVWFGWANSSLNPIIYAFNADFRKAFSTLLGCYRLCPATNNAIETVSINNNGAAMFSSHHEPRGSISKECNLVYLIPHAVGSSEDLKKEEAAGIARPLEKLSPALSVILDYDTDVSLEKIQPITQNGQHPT
Chain of Delta-type opioid receptor (P41143 whole entry): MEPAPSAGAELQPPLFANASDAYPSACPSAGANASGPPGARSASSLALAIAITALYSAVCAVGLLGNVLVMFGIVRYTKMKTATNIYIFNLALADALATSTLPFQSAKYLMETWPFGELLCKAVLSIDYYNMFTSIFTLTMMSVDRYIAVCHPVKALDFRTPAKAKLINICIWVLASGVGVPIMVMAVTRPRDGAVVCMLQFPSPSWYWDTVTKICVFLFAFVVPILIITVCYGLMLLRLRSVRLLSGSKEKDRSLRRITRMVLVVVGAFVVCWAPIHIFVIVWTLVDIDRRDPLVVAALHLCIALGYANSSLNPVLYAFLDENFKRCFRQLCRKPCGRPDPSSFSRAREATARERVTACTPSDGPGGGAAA
Chain of Substance-P receptor (P25103 whole entry): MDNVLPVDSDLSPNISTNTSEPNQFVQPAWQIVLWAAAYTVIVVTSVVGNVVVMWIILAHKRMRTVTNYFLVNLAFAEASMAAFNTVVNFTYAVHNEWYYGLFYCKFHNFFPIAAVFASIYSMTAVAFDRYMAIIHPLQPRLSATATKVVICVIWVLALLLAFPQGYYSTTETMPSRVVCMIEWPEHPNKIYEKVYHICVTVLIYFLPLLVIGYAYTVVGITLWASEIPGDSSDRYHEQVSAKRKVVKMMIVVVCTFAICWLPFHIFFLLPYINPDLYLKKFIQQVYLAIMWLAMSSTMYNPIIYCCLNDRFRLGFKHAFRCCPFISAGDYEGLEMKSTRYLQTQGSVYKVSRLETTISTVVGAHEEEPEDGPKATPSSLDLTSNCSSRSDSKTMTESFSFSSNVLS

Row | SMILES | IC50 [1] | IC50 [2] | Ki [2] | IC50 [3] | Ki [3] | IC50 [4] | IC50 [5] | IC50 [6] | IC50 [7] | IC50 [8] | IC50 [9] | Ki [9] | IC50 [10] | Ki [10] | IC50 [11] | Ki [11] | IC50 [12] | Ki [12] | IC50 [13] | IC50 [14] | also measured
1 | CN[C@H](CC(C)C)C(=O)N[C@H]1C(=O)N[C@@H](CC(N)=O)C(=O)N[C@H]2C(=O)N[C@H]3C(=O)N[C@H](C(=O)N[C@H](C(=O)O)c4cc(O)cc(O)c4-c4cc3ccc4O)[C@H](O)c3ccc(c(Cl)c3)Oc3cc2cc(c3O[C@@H]2O[C@H](CO)[C@@H](O)[C@H](O)[C@H]2O[C@H]2C[C@](C)(N)[C@H](O)[C@H](C)O2)Oc2ccc(cc2Cl)[C@H]1O [VANCOMYCIN] | Not Active | Not Active | Not Active | Not Active | Not Active | Not Active | Not Active | Not Active | Not Active | Not Active | Not Active | Not Active | Not Active | Not Active | Not Active | Not Active | Not Active | Not Active | Not Active | Not Active | IC50 [15]: Not Active; Ki [15]: Not Active; IC50 [16]: Not Active; IC50 [17]: Not Active; IC50 [18]: Not Active; IC50 ([19]; insect cells): Not Active; IC50 [20]: Not Active
2 | CC(C)[C@H](N)C(=O)OCCOCn1cnc2c(=O)nc(N)[nH]c21 [VALACYCLOVIR] | Not Active | Not Active | Not Active | Not Active | Not Active | Not Active | Not Active | Not Active | Not Active | Not Active | Not Active | Not Active | Not Active | Not Active | Not Active | Not Active | Not Active | Not Active | Not Active | Not Active | IC50 [15]: Not Active; Ki [15]: Not Active; IC50 [16]: Not Active; IC50 [17]: Not Active; IC50 [18]: Not Active; IC50 ([19]; insect cells): Not Active; IC50 [20]: Not Active
3 | CC1CN(c2cc3c(cc2F)c(=O)c(C(=O)O)cn3-c2ccc(F)cc2F)CCN1 (stereo not given) [TEMAFLOXACIN] | Not Active | Not Active | Not Active | Not Active | Not Active | Not Active | Not Active | Not Active | Not Active | Not Active | Not Active | Not Active | Not Active | Not Active | Not Active | Not Active | Not Active | Not Active | Not Active | Not Active | IC50 [15]: Not Active; Ki [15]: Not Active; IC50 [16]: Not Active; IC50 [17]: Not Active; IC50 [18]: Not Active; IC50 ([19]; insect cells): Not Active; IC50 [20]: Not Active
4 | O=C1c2c(O)ccc(O)c2C(=O)c2c(NCCNCCO)ccc(NCCNCCO)c21 [MITOXANTRONE] | Not Active | Not Active | Not Active | Not Active | Not Active | Not Active | Not Active | Not Active | Not Active | Not Active | Not Active | Not Active | Not Active | Not Active | Not Active | Not Active | Not Active | Not Active | Not Active | Not Active | IC50 [15]: Not Active; Ki [15]: Not Active; IC50 [16]: Not Active; IC50 [17]: Not Active; IC50 [18]: Not Active; IC50 ([19]; read-out: IC50): 1260 nM; IC50 [20]: Not Active
5 | CN(C)[C@@H]1C(O)=C(C(N)=O)C(=O)[C@@]2(O)C(O)=C3C(=O)c4c(O)cccc4[C@@](C)(O)[C@H]3C[C@@H]12 [TETRACYCLINE] | Not Active | Not Active | Not Active | Not Active | Not Active | Not Active | Not Active | Not Active | Not Active | Not Active | Not Active | Not Active | Not Active | Not Active | Not Active | Not Active | Not Active | Not Active | Not Active | Not Active | IC50 [15]: Not Active; Ki [15]: Not Active; IC50 [16]: Not Active; IC50 [17]: Not Active; IC50 [18]: Not Active; IC50 ([19]; insect cells): Not Active; IC50 [20]: Not Active
